Patent US9314536B2, “Compounds and methods for the treatment of EGFR positive diseases” (Bio-Thera Solutions, Ltd., Co., priority 2012, dated 2016)

What was measured:
tubulin = experiment: HTS-Tubulin Polymerization Assay Kit, tubulin polymerization in vitro; type: biochemical; conditions: 1 μM stock, 10 μL added to 100 μL 4 mg/ml tubulin, 37° C., 405 nm; compared with the PBS buffer
Experimental: The effect of 3AA-MDC, 206-3AA-MDC (206 is an anit-EGFR antibody containing a light chain with sequence shown in Seq ID 1 and a heavy chain with amino acid sequence shown in Seq ID 2, and it was prepared as described in example 7) and the metabolites (Cys-3AA-MDC and Lys-mcc-MDC) of prodrug antibody maytansinoid conjugates on the tubulin polymerization in vitro was assessed by HTS-Tubulin Polymerization Assay Kit (BK004P, Cytoskeleton, Inc., USA). According to the instruction of kit, pre-warm the 96-well plate to 37° C. for 30 min prior to starting the assay. At the same time, the spectrophotometer (SpectraMax, Molecular Devices, USA) was set as follow: wavelength, 405 nm; temperature, 37° C.; Kinetic, 31 cycles of 1 reading per minute. Make cold G-PEM buffer (990 μL General Tubulin Buffer+10 μL GTP Stock) and keep it on ice. Prepare 4 mg/mL tubulin, 1 μM L-3AA-MDC (N2′-deacetyl-N2′-(6-maleimido-1-oxo-hexyl)maytansine), 1 μM 206-3AA-MDC, 1 μM cys-3AA-MDC, 1 μM lys-mcc-MDC, 100 μM Paclitaxel, and 100 μM Nocodazole. Add 10 μL G-PEM, 3AA-MDC, 206-3AA-MDC, cys-3AA-MDC, lys-mcc-MDC, Paclitaxel, Nocodazole into the wells, and then add 100 μL 4 mg/ml tubulin to each well. Immediately place the plate into the spectrophotometer and start recording using the kinetic setup described above. […] Nocodazole, the tubulin polymerization inhibitor, was set as a negative control. […]

[1] = versus methotrexate, daunorubicin, and vincristine; cited from earlier work
[2] = system: human acute lymphoblastic leukemia line C.E.M.; conditions: cited from earlier work

Row | Structure (SMILES) | inhibition of tubulin polymerization (tubulin) | fold more cytotoxic than conventional chemotherapeutic agents [1] | inhibitory concentration (as low as) [2]
1 | COc1cc2cc(c1Cl)N(C)C(=O)C[C@H](OC(=O)[C@H](C)N(C)C(=O)CCCCCN1C(=O)C=CC1=O)[C@]1(C)OC1[C@H](C)[C@@H]1C[C@@](O)(NC(=O)O1)[C@H](OC)/C=C/C=C(\C)C2 (stereo partly shown) [3AA-MDC, N2′-deacetyl-N2′-(6-maleimido-1-oxo-hexyl)-maytansine] | more significantly inhibited the tubulin polymerization | – | –
2 | COc1cc2cc(c1Cl)N(C)C(=O)C[C@H](OC(=O)[C@H](C)N(C)C(=O)CCSC1CC(=O)N(CC3CCC(C(=O)NCCCC[C@H](N)C(=O)O)CC3)C1=O)[C@]1(C)O[C@H]1[C@H](C)[C@@H]1C[C@@](O)(NC(=O)O1)[C@H](OC)/C=C/C=C(\C)C2 (stereo partly shown) [Lys-mcc-MDC] | more significantly inhibited the tubulin polymerization | – | –
3 | COc1cc2cc(c1Cl)N(C)C(=O)C[C@H](OC(=O)[C@H](C)N(C)C(C)=O)[C@]1(C)O[C@H]1[C@H](C)[C@@H]1C[C@@](O)(NC(=O)O1)[C@H](OC)/C=C/C=C(\C)C2 [Maytansine] | – | 100- to 1000 fold | 10^−7 mg/mL
